We go through 29 compounds from patent US6664231B1, “Anti-fungal peptides” (priority 1993, dated 2003).

Square brackets hold non-standard residues; d marks the D form. Ends that are not written are not given here. Peptide text beside a SMILES is read from it. Phe(4-NH2) = Nc1ccc(C[C@H](N)C(=O)O)cc1; 1Nal = N[C@@H](Cc1cccc2ccccc12)C(=O)O; pGlu = O=C1CC[C@@H](C(=O)O)N1; Tle = CC(C)(C)[C@H](N)C(=O)O; GABA = NCCCC(=O)O; βAla = NCCC(=O)O

This assay relates to C. albicans (CA-1, Strain SLU-1). Kind of assay: Radial diffusion assay. The format is cell-based, Candida albicans. Particulars: for C. albicans pmol/30 mm^2 zone: pmoles of peptide added to well to achieve a 30 mm^2 zone, PROBIT analysis, crude or purified (P′) peptide; for Plate Assay (nmol), crude peptide activity / Plate Assay (nmol), pure peptide activity: nanomoles required to achieve a net 30 mm^2 zone (log titration curve); for Plate Assay (nmol), pure peptide activity: HPLC-purified peptide. As to the method: In the radial diffusion assay procedures, the CA-1 cultures and peptide solutions were prepared as in the broth assay procedure described above. Ten mL of molten underlayer agarose comprising 3% Sabouraud Dextrose broth, 1% agarose (Pharmacia, Piscataway, N.J.), 0.02% Tween 20, and 10 mM sodium phosphate at pH 7.4, was added to polystyrene tubes and maintained in a 56° C. water bath until the addition of yeast. Tubes were cooled to approximately 45° C., yeast were added to give a final concentration of 1×10^6 CFU/mL, and the tubes were mixed again by inverting. The contents were poured into level square petri dishes and distributed evenly. […] A series of wells were punched into the hardened agarose using a sterile 3 mm punch attached to a vacuum apparatus.
Peptides to be assayed were 2-fold serially diluted in Dulbecco's PBS (D-PBS) starting from a concentration of approximately 1 mg/mL. Five μL of each dilution were added to each well and the plates were incubated at 37° C. for 3 hours. An overlayer of 10 mL of molten agarose comprising 6% Sabouraud Dextrose broth, 1% agarose, and 10 mM sodium phosphate, pH 7.4, (at approximately 45° C.) was then added and plates were incubated overnight at 37° C. Following this overnight incubation, a dilute Coomassie solution was poured into the plates and allowed to stain for 24 hours.
Clear zones of growth inhibition around each well were measured with calipers. The actual area of growth inhibition (mm^2) was calculated by subtracting the area of the well. Table 1 below sets out the results of the radial diffusion assays for tested peptides in terms of the number of picomoles (pmol) of peptide required to establish a 30 mm^2 area of growth inhibition calculated by PROBIT analysis (e.g., calculated from regression of the linear portion of log-concentration dose-response curve, log pmol/well vs. net area of inhibition).

As for H-RRWLIQLRR-NH2 [XMP.336], the “C. albicans pmol/30 mm^2 zone” value is reported as >7,332 pmol/30 mm^2 zone. The “C. albicans pmol/30 mm^2 zone” value (listed as XMP.336P′) was “h (inactive to 5,268 pmol)”.
On to `CC[C@H](C)[C@H](NC(=O)[C@H](CC(C)C)NC(=O)[C@H](Cc1c[nH]c2ccccc12)NC(=O)CNC(=O)[C@@H](NC(=O)[C@H](CCCCN)NC(=O)[C@H](CO)NC(=O)[C@@H](N)CCCCN)C(C)C)C(=O)N[C@@H](Cc1ccc(N)cc1)C(=O)N[C@@H](CC(C)C)C(=O)N[C@@H](Cc1ccccc1)C(=O)N[C@@H](Cc1c[nH]cn1)C(=O)N[C@@H](CCCCN)C(=O)N[C@@H](Cc1cccc2ccccc12)C(N)=O` [XMP.228] (H-KSKVGWLI[Phe(4-NH2)]LFHK[1Nal]-NH2), for which the “C. albicans pmol/30 mm^2 zone” value is reported as “b (No detectable activity up to 5 μg/well)”.
Regarding H-SKVKWLIQL-NH2 [Peptide 294], the “Plate Assay (nmol), crude peptide activity” value is on record as above 4.634 nmol.
The same measure, in the same setting: the result for H-SKVKWLIQLFH-NH2 [Peptide 287] reads above 3.509 nmol.
With H-KSKVGWLIQLAHKK-NH2 [XMP.41], the “C. albicans pmol/30 mm^2 zone” value worked out at 734 pmol/30 mm^2 zone.
On to H-KWLIQL-NH2 [XMP.315], for which the “C. albicans pmol/30 mm^2 zone” value was >5,069 pmol/30 mm^2 zone. The “C. albicans pmol/30 mm^2 zone” value (listed as XMP.315P′) is >12,853 pmol/30 mm^2 zone.
As for H-KVKWLIQL-NH2 [Peptide 300], the “Plate Assay (nmol), pure peptide activity” value is 0.993 nmol and the “Plate Assay (nmol), crude peptide activity” value amounted to 1.957 nmol.
Consider `CC[C@H](C)[C@H](NC(=O)[C@H](CC(C)C)NC(=O)[C@H](Cc1c[nH]c2ccccc12)NC(=O)[C@@H](N)CCCCN)C(=O)N[C@@H](CCC(N)=O)C(=O)N[C@@H](CC(C)C)C(=O)N[C@@H](CCCCN)C(N)=O` [XMP.323], for which the “C. albicans pmol/30 mm^2 zone” value was >4,627 pmol/30 mm^2 zone.
Same read-out and setting: the value for H-KSKVGWLIQLFHAK-NH2 [XMP.43] was 785 pmol/30 mm^2 zone; that for `CC[C@H](C)[C@H](NC(=O)[C@H](CC(C)C)NC(=O)[C@@H](NC(=O)CNC(=O)[C@@H](NC(=O)[C@H](CCCCN)NC(=O)[C@H](CO)NC(=O)[C@@H](N)CCCCN)C(C)C)C(C)(C)C)C(=O)N[C@@H](CCC(N)=O)C(=O)N[C@@H](CC(C)C)C(=O)N[C@@H](Cc1ccccc1)C(=O)N[C@@H](Cc1c[nH]cn1)C(=O)N[C@@H](CCCCN)C(=O)N[C@@H](CCCCN)C(N)=O` [XMP.258] (H-KSKVG[Tle]LIQLFHKK-NH2) was 880 pmol/30 mm^2 zone; that for `CC[C@H](C)[C@H](NC(=O)[C@H](CC(C)C)NC(=O)[C@H](Cc1c[nH]c2ccccc12)NC(=O)CNC(=O)[C@@H](NC(=O)[C@H](CCCCN)NC(=O)[C@H](CO)NC(=O)[C@@H](N)CCCCN)C(C)C)C(=O)N[C@@H](Cc1ccc(N)cc1)C(=O)N[C@@H](CC(C)C)C(=O)N[C@@H](Cc1ccccc1)C(=O)N[C@@H](Cc1c[nH]cn1)C(=O)N[C@@H](CCCCN)C(=O)N[C@@H](CCCCN)C(N)=O` [XMP.123] (H-KSKVGWLI[Phe(4-NH2)]LFHKK-NH2) was 1721 pmol/30 mm^2 zone.
For the compound H-KSKVLWLIQLFHKK-NH2 [XMP.85], the “C. albicans pmol/30 mm^2 zone” value is reported as above 1881 pmol/30 mm^2 zone.
For H-KVKWLIQLFH-NH2 [Peptide 291], the “Plate Assay (nmol), crude peptide activity” value is on record as above 5.039 nmol.
Same read-out and setting: the value for H-LIQLFHKK-NH2 [Peptide 304] was above 8.290 nmol.
As to `CC[C@H](C)[C@H](NC(=O)[C@H](CC(C)C)NC(=O)[C@H](Cc1c[nH]c2ccccc12)NC(=O)[C@@H](N)CCCCN)C(=O)N[C@@H](CCC(N)=O)C(=O)N[C@@H](CC(C)C)C(=O)N[C@@H](Cc1ccccc1)C(=O)N[C@@H](Cc1c[nH]cn1)C(=O)N[C@@H](CCCCN)C(N)=O` [XMP.297], the “C. albicans pmol/30 mm^2 zone” value is recorded as 1,817 pmol/30 mm^2 zone. In addition, the “C. albicans pmol/30 mm^2 zone” value (listed as XMP.297P′) is listed as 564 pmol/30 mm^2 zone.
For the compound `CC[C@H](C)[C@H](NC(=O)[C@H](CC(C)C)NC(=O)[C@H](Cc1c[nH]c2ccccc12)NC(=O)[C@@H](N)CCCCN)C(=O)N[C@@H](CCC(N)=O)C(=O)N[C@@H](CC(C)C)C(=O)N[C@@H](Cc1ccccc1)C(=O)N[C@@H](Cc1c[nH]cn1)C(=O)N[C@@H](CCCCN)C(=O)N[C@@H](CCCCN)C(N)=O` [Peptide 293], the “Plate Assay (nmol), pure peptide activity” value came to 0.215 nmol and the “Plate Assay (nmol), crude peptide activity” value was found to be 1.156 nmol.
Take H-SKVKWLI-NH2 [XMP.305]: the “C. albicans pmol/30 mm^2 zone” value is listed as >10,228 pmol/30 mm^2 zone.
The same measure, in the same setting: the result for `CC[C@H](C)[C@H](NC(=O)[C@H](CC(C)C)NC(=O)CCCNC(=O)CNC(=O)[C@@H](NC(=O)[C@H](CCCCN)NC(=O)[C@H](CO)NC(=O)[C@@H](N)CCCCN)C(C)C)C(=O)N[C@@H](CCC(N)=O)C(=O)N[C@@H](CC(C)C)C(=O)N[C@@H](Cc1ccccc1)C(=O)N[C@@H](Cc1c[nH]cn1)C(=O)N[C@@H](CCCCN)C(=O)N[C@@H](CCCCN)C(N)=O` [XMP.256] (H-KSKVG[GABA]LIQLFHKK-NH2) reads “b (No detectable activity up to 5 μg/well)”; that for `CC[C@H](C)[C@H](NC(=O)[C@H](CC(C)C)NC(=O)[C@H](Cc1cccc2ccccc12)NC(=O)CNC(=O)[C@@H](NC(=O)[C@H](CCCCN)NC(=O)[C@H](CO)NC(=O)[C@@H](N)CCCCN)C(C)C)C(=O)N[C@@H](CCC(N)=O)C(=O)N[C@@H](CC(C)C)C(=O)N[C@@H](Cc1ccccc1)C(=O)N[C@@H](Cc1c[nH]cn1)C(=O)N[C@@H](CCCCN)C(=O)N[C@@H](Cc1cccc2ccccc12)C(N)=O` [XMP.222] (H-KSKVG[1Nal]LIQLFHK[1Nal]-NH2), >2,610 pmol/30 mm^2 zone; that for `CC[C@H](C)[C@H](NC(=O)[C@H](CC(C)C)NC(=O)[C@H](Cc1c[nH]c2ccccc12)NC(=O)CNC(=O)[C@@H](NC(=O)[C@H](CCCCN)NC(=O)[C@H](CO)NC(=O)[C@@H](N)CCCCN)C(C)C)C(=O)N[C@@H](CCC(N)=O)C(=O)N[C@@H](Cc1cccc2ccccc12)C(=O)N[C@@H](Cc1ccccc1)C(=O)N[C@@H](Cc1cccc2ccccc12)C(=O)N[C@@H](CCCCN)C(=O)N[C@@H](CCCCN)C(N)=O` [XMP.231] (H-KSKVGWLIQ[1Nal]F[1Nal]KK-NH2), “b (No detectable activity up to 5 μg/well)”.
The same measure, in the same setting: the result for `CC[C@H](C)[C@H](NC(=O)[C@H](CC(C)C)NC(=O)CCNC(=O)CNC(=O)[C@@H](NC(=O)[C@H](CCCCN)NC(=O)[C@H](CO)NC(=O)[C@@H](N)CCCCN)C(C)C)C(=O)N[C@@H](CCC(N)=O)C(=O)N[C@@H](CC(C)C)C(=O)N[C@@H](Cc1ccccc1)C(=O)N[C@@H](Cc1c[nH]cn1)C(=O)N[C@@H](CCCCN)C(=O)N[C@@H](CCCCN)C(N)=O` [XMP.254] (H-KSKVG[βAla]LIQLFHKK-NH2) reads 1,040 pmol/30 mm^2 zone.
As for `CC[C@H](C)[C@H](NC(=O)[C@H](CC(C)C)NC(=O)[C@H](Cc1c[nH]c2ccccc12)NC(=O)[C@@H](N)CCCCN)C(=O)N[C@@H](CCC(N)=O)C(=O)N[C@@H](CC(C)C)C(=O)N[C@@H](Cc1ccccc1)C(=O)N[C@@H](Cc1c[nH]cn1)C(=O)N[C@@H](CCCCN)C(=O)N[C@@H](CCCCN)C(N)=O` [XMP.293], the “C. albicans pmol/30 mm^2 zone” value is listed as 1,156 pmol/30 mm^2 zone. Further, for the setting “listed as XMP.293P′”, the “C. albicans pmol/30 mm^2 zone” value is 215 pmol/30 mm^2 zone.
On to `CC[C@H](C)[C@H](NC(=O)[C@H](CC(C)C)NC(=O)[C@H](Cc1cccc2ccccc12)NC(=O)[C@H](CCCCN)NC(=O)[C@@H](NC(=O)[C@H](CCCCN)NC(=O)[C@H](CO)NC(=O)[C@@H](N)CCCCN)C(C)C)C(=O)N[C@@H](CCC(N)=O)C(=O)N[C@@H](CC(C)C)C(=O)N[C@@H](Cc1ccccc1)C(=O)N[C@@H](Cc1c[nH]cn1)C(=O)N[C@@H](CCCCN)C(=O)N[C@@H](CCCCN)C(N)=O` [XMP.116] (H-KSKVK[1Nal]LIQLFHKK-NH2), for which the “C. albicans pmol/30 mm^2 zone” value is 670 pmol/30 mm^2 zone.
As to H-KKWLIQL-NH2 [XMP.325], the “C. albicans pmol/30 mm^2 zone” value is given as 4,135 pmol/30 mm^2 zone.
Take H-KSKVGLLIQLFHKK-NH2 [XMP.250]: the “C. albicans pmol/30 mm^2 zone” value is 536 pmol/30 mm^2 zone.
For the compound H-KVKWLI-NH2 [XMP.313], the “C. albicans pmol/30 mm^2 zone” value was >11,050 pmol/30 mm^2 zone.
Regarding H-KWLIQLF-NH2 [XMP.308], the “C. albicans pmol/30 mm^2 zone” value is on record as “b (No detectable activity up to 5 μg/well)”.
For the compound “XMP.341: PYR - PYR - 153-157 - PYR - PYR (SEQ ID NO:172) ([pGlu][pGlu]WLIQL[pGlu][pGlu]; not fully specified; printed as PYR - PYR - 153-157 - PYR - PYR)”, the “C. albicans pmol/30 mm^2 zone” value is “b (No detectable activity up to 5 μg/well)”.
On the same count and under the same terms, the value for H-SKVKWLIQLFHK-NH2 [XMP.285] was >3,024 pmol/30 mm^2 zone.
